ChEMBL document CHEMBL2073889, “ATP-dependent transport of beta-estradiol 17-(beta-D-glucuronide) in rat canalicular membrane vesicles” (Am J Physiol, 1996)

Molecular target: Multidrug resistance protein 1a (Rattus norvegicus) (UniProt Q6PSM0)
Assay: TP_TRANSPORTER: uptake, inhibited by C219 antibody in bile canalicular membrane vesicles from SD rat
Type: functional, cell membranes
Settings: Sprague-Dawley, Bile canalicular membrane vesicle

Chain of Multidrug resistance protein 1a (Rattus norvegicus) (Q6PSM0 as listed by the source): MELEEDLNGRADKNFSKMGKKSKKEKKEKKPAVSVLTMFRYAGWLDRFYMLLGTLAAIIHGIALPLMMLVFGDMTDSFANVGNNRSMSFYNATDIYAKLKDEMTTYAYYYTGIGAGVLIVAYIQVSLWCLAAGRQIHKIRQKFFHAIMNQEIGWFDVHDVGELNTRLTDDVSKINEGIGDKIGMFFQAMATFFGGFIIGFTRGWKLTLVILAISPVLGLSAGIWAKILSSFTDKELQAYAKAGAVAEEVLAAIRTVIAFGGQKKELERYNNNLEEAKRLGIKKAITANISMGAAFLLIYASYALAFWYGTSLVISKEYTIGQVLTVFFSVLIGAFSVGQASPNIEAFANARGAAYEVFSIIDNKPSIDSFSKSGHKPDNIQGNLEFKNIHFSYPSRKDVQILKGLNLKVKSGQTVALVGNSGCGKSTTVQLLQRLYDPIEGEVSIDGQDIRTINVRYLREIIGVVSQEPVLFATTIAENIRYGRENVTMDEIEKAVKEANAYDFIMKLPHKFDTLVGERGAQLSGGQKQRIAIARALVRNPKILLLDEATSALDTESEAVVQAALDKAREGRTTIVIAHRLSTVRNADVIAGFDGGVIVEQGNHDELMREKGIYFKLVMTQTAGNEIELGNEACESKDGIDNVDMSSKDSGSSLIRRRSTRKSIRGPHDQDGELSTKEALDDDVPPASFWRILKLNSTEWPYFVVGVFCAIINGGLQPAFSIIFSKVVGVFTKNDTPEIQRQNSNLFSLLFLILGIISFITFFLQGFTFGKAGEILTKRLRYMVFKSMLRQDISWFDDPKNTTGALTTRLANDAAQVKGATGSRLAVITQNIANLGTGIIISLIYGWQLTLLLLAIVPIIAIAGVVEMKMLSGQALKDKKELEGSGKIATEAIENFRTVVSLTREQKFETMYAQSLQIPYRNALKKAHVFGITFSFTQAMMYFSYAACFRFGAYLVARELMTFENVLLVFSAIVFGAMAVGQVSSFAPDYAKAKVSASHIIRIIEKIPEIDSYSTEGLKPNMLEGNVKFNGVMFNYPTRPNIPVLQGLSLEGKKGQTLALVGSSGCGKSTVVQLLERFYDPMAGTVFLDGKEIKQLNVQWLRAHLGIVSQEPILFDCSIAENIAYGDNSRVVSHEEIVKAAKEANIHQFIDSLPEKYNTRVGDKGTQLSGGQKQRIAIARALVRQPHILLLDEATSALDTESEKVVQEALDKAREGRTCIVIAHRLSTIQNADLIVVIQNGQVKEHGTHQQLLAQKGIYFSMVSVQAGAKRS

Compound: C[C@]12CC[C@@H]3c4ccc(O)cc4CC[C@H]3[C@@H]1CC[C@@H]2O[C@@H]1O[C@H](C(=O)O)[C@@H](O)[C@H](O)[C@H]1O
- Activity: substrate [+]
